What was measured:
Type in all cases: in vivo
[1] = test system: Lolium perenne (LOLPE); test: Example B pre-emergence herbicidal test, LOLPE; settings: Lolium perenne, 312 h, rate 250 g/ha, evaluated after 13 days, 100=total damage to plant, 0=no damage to plant
Method in brief: (§1)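 After sowing in standard soil, pots spent a day in the glasshouse (24/16° C, 14 h photoperiod, 65% humidity) before spraying with compound in acetone/water 50:50 with 0.5% Tween 20. Watering followed twice a day, and plants were evaluated 13 days on, with 100 meaning complete damage.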

[2] = test system: Alopecurus myosuroides (ALOMY); test: Example B pre-emergence herbicidal test, ALOMY; settings: Alopecurus myosuroides, 312 h, rate 250 g/ha, evaluated after 13 days, 100=total damage to plant, 0=no damage to plant
Method in brief: as §1

[3] = test system: Echinochloa crus-galli (ECHCG); test: Example B pre-emergence herbicidal test, ECHCG; settings: Echinochloa crus-galli, 312 h, rate 250 g/ha, evaluated after 13 days, 100=total damage to plant, 0=no damage to plant
Method in brief: as §1

[4] = test system: Avena fatua (AVEFA); test: Example B pre-emergence herbicidal test, AVEFA; settings: Avena fatua, 312 h, rate 250 g/ha, evaluated after 13 days, 100=total damage to plant, 0=no damage to plant
Method in brief: as §1

[5] = test system: Lolium perenne (LOLPE); test: Example B post-emergence herbicidal test, LOLPE; settings: Lolium perenne, 312 h, rate 250 g/ha, evaluated after 13 days, scale 0-100, read-out: Post-emergence activity LOLPE (100=total damage to plant; 0=no damage to plant)
Method in brief: (§2)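 Plants grown from seed in standard soil for 8 days in a glasshouse (24/16 °C day/night, 14 h light, 65% humidity), then sprayed with an aqueous solution from the active ingredient formulated in acetone/water (50:50) with 0.5% Tween 20. Damage scored after 13 days, 0 (none) to 100 (total).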

[6] = test system: Alopecurus myosuroides (ALOMY); test: Example B post-emergence herbicidal test, ALOMY; settings: Alopecurus myosuroides, 312 h, rate 250 g/ha, evaluated after 13 days, scale 0-100, read-out: Post-emergence activity ALOMY (100=total damage to plant; 0=no damage to plant)
Method in brief: as §2

[7] = test system: Echinochloa crus-galli (ECHCG); test: Example B post-emergence herbicidal test, ECHCG; settings: Echinochloa crus-galli, 312 h, rate 250 g/ha, evaluated after 13 days, scale 0-100, read-out: Post-emergence activity ECHCG (100=total damage to plant; 0=no damage to plant)
Method in brief: as §2

[8] = test system: Avena fatua (AVEFA); test: Example B post-emergence herbicidal test, AVEFA; settings: Avena fatua, 312 h, rate 250 g/ha, evaluated after 13 days, scale 0-100, read-out: Post-emergence activity AVEFA (100=total damage to plant; 0=no damage to plant)
Method in brief: as §2

Cc1cc(C)c(C2C(=O)CC(CC3CCN(C(=O)OCC(Cl)(Cl)Cl)CC3)C2=O)c(C)c1 (centres unmarked) [Compound T86] gave a pest or weed control at 250 g/ha [1] of 100%, a pest or weed control at 250 g/ha [2] of 60% and a pest or weed control at 250 g/ha [3] of 50%. For the same molecule, the pest or weed control at 250 g/ha [4] was 30%, the pest or weed control at 250 g/ha [5] was 70% and the pest or weed control at 250 g/ha [6] was 40%. For the same molecule, the pest or weed control at 250 g/ha [7] was 80% and the pest or weed control at 250 g/ha [8] was 80%.

Cc1cccc(C(=O)N2CCC(CC3CC(=O)C(c4c(C)cc(C)cc4C)C3=O)CC2)c1 (centres unmarked) [Compound T122] was tested, and the pest or weed control at 250 g/ha [1] was 50%, the pest or weed control at 250 g/ha [2] was 20% and the pest or weed control at 250 g/ha [3] was 70%. The pest or weed control at 250 g/ha [4] was 20%, the pest or weed control at 250 g/ha [5] was 80% and the pest or weed control at 250 g/ha [6] was 60%. The pest or weed control at 250 g/ha [7] was 70% and the pest or weed control at 250 g/ha [8] was 30%.

In the case of Cc1cc(C)c(C2C(=O)CC(CC3CCN(C(=O)c4ccccc4C)CC3)C2=O)c(C)c1 (centres unmarked) [Compound T72], the pest or weed control at 250 g/ha [1] is reported as 60%, the pest or weed control at 250 g/ha [2] is reported as 30% and the pest or weed control at 250 g/ha [3] is reported as 80%. It also gave a pest or weed control at 250 g/ha [4] of 20%, a pest or weed control at 250 g/ha [5] of 80% and a pest or weed control at 250 g/ha [6] of 50%. For the same molecule, the pest or weed control at 250 g/ha [7] was 90% and the pest or weed control at 250 g/ha [8] was 80%.

Molecule Cc1cc(Br)cc(C)c1C1C(=O)CC(CC2CCOC2)C1=O (centres unmarked) [Compound T160] has a pest or weed control at 250 g/ha [1] of 90%, a pest or weed control at 250 g/ha [2] of 30% and a pest or weed control at 250 g/ha [3] of 70%. The pest or weed control at 250 g/ha [4] was 40%, the pest or weed control at 250 g/ha [5] was 100% and the pest or weed control at 250 g/ha [6] was 40%. It also gave a pest or weed control at 250 g/ha [7] of 70% and a pest or weed control at 250 g/ha [8] of 60%.

Molecule CON1CCC(CC2CC(=O)C(c3c(C)cc(C)cc3C)C2=O)CC1 (centres unmarked) [Compound T23] has a pest or weed control at 250 g/ha [1] of 100%, a pest or weed control at 250 g/ha [2] of 100% and a pest or weed control at 250 g/ha [3] of 100%. The pest or weed control at 250 g/ha [4] was 100%, the pest or weed control at 250 g/ha [5] was 100% and the pest or weed control at 250 g/ha [6] was 90%. The pest or weed control at 250 g/ha [7] was 100% and the pest or weed control at 250 g/ha [8] was 100%.

Work on CCCCC(=O)N1CCC(CC2CC(=O)C(c3c(C)cc(C)cc3C)C2=O)CC1 (centres unmarked) [Compound T85] yielded a pest or weed control at 250 g/ha [1] of 60%, a pest or weed control at 250 g/ha [2] of 60% and a pest or weed control at 250 g/ha [3] of 30%. The pest or weed control at 250 g/ha [4] was 20%, the pest or weed control at 250 g/ha [5] was 90% and the pest or weed control at 250 g/ha [6] was 90%. The pest or weed control at 250 g/ha [7] was 80% and the pest or weed control at 250 g/ha [8] was 90%.

Cc1cc(C)c(C2=C(OC(=O)OC(C)(C)C)C/C(=C\C3CCN(C(=O)OC(C)(C)C)CC3)C2=O)c(C)c1 [Compound P53] showed a pest or weed control at 250 g/ha [1] of 100%, a pest or weed control at 250 g/ha [2] of 60% and a pest or weed control at 250 g/ha [3] of 90%. For the same molecule, the pest or weed control at 250 g/ha [4] was 70%, the pest or weed control at 250 g/ha [5] was 20% and the pest or weed control at 250 g/ha [6] was 60%. For the same molecule, the pest or weed control at 250 g/ha [7] was 70% and the pest or weed control at 250 g/ha [8] was 40%.

Molecule Cc1cc(C)c(C2C(=O)CC(CC3CCN(C(=O)c4ccc(-c5ccccc5)cc4)CC3)C2=O)c(C)c1 (centres unmarked) [Compound T77] has a pest or weed control at 250 g/ha [1] of 0%, a pest or weed control at 250 g/ha [2] of 0% and a pest or weed control at 250 g/ha [3] of 0%. The pest or weed control at 250 g/ha [4] was 0%, the pest or weed control at 250 g/ha [5] was 40% and the pest or weed control at 250 g/ha [6] was 30%. It also gave a pest or weed control at 250 g/ha [7] of 20% and a pest or weed control at 250 g/ha [8] of 40%.

Cc1cc(C)c(C2C(=O)CC(CC3CCN(C(=O)C(C)(C)C)C3)C2=O)c(C)c1 (centres unmarked) [Compound T143] was tested, and the pest or weed control at 250 g/ha [1] was 100%, the pest or weed control at 250 g/ha [2] was 80% and the pest or weed control at 250 g/ha [3] was 100%. The pest or weed control at 250 g/ha [4] was 50%, the pest or weed control at 250 g/ha [5] was 60% and the pest or weed control at 250 g/ha [6] was 60%. The pest or weed control at 250 g/ha [7] was 60% and the pest or weed control at 250 g/ha [8] was 80%.

Cc1cc(C)c(C2C(=O)CC(CC3CCN(C(=O)c4cccc(Cl)c4)CC3)C2=O)c(C)c1 (centres unmarked) [Compound T73] gave a pest or weed control at 250 g/ha [1] of 80%, a pest or weed control at 250 g/ha [2] of 40% and a pest or weed control at 250 g/ha [3] of 80%. The pest or weed control at 250 g/ha [4] was 80%, the pest or weed control at 250 g/ha [5] was 80% and the pest or weed control at 250 g/ha [6] was 90%. For the same molecule, the pest or weed control at 250 g/ha [7] was 90% and the pest or weed control at 250 g/ha [8] was 100%.
